Reference: ChEMBL document CHEMBL5365465, “Oxetanes in Drug Discovery Campaigns” (J Med Chem, 2023)
One block for each molecule: values may come before it.

Columns and labels:
[1] = target: T1, Leucine-rich repeat serine/threonine-protein kinase 2 (Homo sapiens, UniProt Q5S007); assay: Inhibition of LRRK2 in human PBMCs assessed as reduction in […] phosphorylation
[2] = target: Histone-lysine N-methyltransferase EZH2 (Homo sapiens, UniProt Q15910); assay: Inhibition of EZH2 (unknown origin)
[3] = target: Platelet-derived growth factor receptor alpha (Homo sapiens, UniProt P16234, D842V); assay: Inhibition of PDGFRalpha D842V mutant (unknown origin)
[4] = target: Mast/stem cell growth factor receptor Kit (Homo sapiens, UniProt P10721, D816V); assay: Inhibition of KIT D816V mutant (unknown origin)
[5] = target: T1, Leucine-rich repeat serine/threonine-protein kinase 2; assay: Inhibition of LRRK2 (unknown origin)
Protease = Protease (Human immunodeficiency virus 1, UniProt Q9YQ12); assay: Inhibition of HIV protease
[6] = Metabolic stability in human liver microsomes assessed as intrinsic clearance; type: ADME, Microsome
[7] = Aqueous solubility of compound at pH 2; type: physicochemical

T1 sequence (Q5S007 whole entry): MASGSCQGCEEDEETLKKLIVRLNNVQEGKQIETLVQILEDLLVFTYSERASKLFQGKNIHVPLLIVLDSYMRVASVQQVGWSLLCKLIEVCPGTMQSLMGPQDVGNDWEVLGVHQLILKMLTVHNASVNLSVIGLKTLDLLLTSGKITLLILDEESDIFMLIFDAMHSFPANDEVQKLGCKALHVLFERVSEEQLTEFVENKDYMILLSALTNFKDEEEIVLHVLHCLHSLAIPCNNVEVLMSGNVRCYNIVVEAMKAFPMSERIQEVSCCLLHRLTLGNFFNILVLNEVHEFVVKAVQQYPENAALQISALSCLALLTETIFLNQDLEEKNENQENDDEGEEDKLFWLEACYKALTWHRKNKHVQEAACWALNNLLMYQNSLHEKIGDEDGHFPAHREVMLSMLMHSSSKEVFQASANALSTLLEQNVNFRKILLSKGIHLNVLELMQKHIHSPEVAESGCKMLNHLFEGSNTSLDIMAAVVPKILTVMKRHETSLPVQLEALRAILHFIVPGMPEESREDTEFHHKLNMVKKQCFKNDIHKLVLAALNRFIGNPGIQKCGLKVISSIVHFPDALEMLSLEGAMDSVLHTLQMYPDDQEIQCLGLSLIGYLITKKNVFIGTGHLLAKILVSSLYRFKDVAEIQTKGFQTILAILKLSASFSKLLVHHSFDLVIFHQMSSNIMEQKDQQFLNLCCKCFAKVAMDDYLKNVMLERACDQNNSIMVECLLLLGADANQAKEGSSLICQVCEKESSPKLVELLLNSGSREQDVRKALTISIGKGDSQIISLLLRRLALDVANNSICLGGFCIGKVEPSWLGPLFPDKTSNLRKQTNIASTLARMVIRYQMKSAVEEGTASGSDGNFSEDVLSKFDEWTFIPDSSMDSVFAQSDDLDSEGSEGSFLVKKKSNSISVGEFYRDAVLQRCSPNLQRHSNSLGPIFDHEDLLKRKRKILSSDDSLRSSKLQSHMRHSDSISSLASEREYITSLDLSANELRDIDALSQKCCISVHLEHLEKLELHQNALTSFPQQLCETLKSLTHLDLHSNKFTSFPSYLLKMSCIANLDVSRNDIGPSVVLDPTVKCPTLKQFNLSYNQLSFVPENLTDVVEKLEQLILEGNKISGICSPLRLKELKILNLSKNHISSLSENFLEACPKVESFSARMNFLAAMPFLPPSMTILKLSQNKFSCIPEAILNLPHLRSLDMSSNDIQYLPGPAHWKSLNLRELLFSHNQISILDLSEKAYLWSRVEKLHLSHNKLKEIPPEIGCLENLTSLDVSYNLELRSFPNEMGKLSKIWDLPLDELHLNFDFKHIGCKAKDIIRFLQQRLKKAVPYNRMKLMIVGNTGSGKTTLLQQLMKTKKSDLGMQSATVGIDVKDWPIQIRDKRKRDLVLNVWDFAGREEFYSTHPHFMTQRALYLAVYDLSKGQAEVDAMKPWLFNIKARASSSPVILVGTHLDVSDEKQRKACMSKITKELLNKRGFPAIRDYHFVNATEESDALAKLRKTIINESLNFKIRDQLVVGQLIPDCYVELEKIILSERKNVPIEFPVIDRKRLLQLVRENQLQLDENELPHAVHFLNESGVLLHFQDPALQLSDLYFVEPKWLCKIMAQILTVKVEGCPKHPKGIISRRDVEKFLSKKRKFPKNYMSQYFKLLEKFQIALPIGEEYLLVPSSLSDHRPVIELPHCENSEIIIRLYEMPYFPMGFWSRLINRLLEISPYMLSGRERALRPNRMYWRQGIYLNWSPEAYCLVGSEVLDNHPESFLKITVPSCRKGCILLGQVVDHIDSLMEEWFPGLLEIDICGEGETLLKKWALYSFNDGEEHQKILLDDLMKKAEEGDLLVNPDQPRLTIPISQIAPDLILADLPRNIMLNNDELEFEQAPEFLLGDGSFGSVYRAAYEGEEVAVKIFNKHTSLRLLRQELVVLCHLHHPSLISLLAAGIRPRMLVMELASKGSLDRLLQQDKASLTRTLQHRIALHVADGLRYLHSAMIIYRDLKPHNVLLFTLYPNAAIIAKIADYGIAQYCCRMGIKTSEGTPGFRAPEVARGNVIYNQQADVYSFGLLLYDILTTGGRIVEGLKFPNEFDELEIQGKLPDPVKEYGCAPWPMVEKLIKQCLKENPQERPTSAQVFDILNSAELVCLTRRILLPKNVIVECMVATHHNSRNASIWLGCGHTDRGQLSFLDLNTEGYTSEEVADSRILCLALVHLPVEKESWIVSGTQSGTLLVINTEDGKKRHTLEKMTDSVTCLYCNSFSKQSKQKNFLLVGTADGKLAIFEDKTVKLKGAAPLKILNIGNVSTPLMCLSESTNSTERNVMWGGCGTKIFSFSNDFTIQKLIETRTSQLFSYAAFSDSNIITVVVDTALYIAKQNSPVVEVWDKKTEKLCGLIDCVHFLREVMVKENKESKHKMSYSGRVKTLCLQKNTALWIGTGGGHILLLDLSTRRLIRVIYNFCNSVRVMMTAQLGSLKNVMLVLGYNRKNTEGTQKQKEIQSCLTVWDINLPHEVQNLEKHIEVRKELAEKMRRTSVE
Chain of Mast/stem cell growth factor receptor Kit (P10721 26-976 D816V limits assumed): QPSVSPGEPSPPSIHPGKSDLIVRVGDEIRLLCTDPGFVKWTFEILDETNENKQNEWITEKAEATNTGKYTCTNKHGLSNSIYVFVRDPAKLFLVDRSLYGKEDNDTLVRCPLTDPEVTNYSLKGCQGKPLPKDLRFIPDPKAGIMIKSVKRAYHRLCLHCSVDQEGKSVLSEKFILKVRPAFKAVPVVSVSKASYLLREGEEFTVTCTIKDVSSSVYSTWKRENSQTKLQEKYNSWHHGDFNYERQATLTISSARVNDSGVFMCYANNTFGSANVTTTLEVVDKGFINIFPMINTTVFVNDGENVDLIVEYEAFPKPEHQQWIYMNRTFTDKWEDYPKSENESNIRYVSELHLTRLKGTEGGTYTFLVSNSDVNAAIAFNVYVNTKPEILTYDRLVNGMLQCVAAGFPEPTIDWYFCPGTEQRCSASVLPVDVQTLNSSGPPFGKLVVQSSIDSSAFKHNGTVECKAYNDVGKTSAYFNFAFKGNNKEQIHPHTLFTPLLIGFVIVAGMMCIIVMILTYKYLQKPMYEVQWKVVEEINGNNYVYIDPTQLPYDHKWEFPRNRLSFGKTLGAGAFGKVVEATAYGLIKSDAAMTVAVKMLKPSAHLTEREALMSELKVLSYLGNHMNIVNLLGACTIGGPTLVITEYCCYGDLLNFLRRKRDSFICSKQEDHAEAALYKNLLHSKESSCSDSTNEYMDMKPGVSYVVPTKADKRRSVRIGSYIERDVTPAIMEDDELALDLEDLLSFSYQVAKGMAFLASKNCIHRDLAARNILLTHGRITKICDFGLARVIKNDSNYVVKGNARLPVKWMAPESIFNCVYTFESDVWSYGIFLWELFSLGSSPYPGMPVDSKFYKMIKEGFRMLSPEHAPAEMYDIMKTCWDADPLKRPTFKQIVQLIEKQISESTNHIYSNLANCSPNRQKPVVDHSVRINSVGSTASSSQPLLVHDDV
Chain of Histone-lysine N-methyltransferase EZH2 (Q15910 whole entry): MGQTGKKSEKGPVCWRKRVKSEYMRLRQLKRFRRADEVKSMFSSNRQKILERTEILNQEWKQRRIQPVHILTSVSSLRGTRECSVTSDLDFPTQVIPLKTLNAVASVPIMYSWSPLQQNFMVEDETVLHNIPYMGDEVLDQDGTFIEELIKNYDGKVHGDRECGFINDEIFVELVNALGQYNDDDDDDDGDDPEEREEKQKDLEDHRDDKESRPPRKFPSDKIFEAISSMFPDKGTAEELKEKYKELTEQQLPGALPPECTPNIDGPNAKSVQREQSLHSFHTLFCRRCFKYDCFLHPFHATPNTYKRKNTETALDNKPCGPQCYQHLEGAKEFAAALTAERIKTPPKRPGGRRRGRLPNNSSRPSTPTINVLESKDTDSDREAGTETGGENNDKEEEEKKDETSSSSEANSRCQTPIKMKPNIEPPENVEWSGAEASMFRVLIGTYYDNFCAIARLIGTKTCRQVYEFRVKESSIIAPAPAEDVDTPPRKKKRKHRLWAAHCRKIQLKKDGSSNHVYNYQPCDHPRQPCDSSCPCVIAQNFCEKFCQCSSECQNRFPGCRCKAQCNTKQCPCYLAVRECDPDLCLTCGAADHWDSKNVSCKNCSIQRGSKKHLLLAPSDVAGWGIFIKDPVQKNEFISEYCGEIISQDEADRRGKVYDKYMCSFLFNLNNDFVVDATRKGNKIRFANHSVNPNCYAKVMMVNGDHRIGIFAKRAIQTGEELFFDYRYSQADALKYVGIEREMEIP
Chain of Protease (Q9YQ12 whole entry): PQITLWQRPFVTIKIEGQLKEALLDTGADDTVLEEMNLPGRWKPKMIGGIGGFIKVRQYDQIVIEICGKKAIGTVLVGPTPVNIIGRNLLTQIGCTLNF

Compound: O=C1NCCCOc2ccc3[nH]nc(c3c2)-c2cc(cc(N3CCC4(COC4)C3)c2)CO1
IC50 [1]: < 10 nM

Compound: Cc1ccc2ccc(N[C@H]3CC[C@H](CNc4ncc(C(F)(F)C(=O)NC5COC5)cn4)CC3)nc2c1Cl
IC50 [2]: < 10 nM

Compound: CC(C)(C)Cn1cc(Nc2ncc3c(Cl)c(N4CCN(C5(C)COC5)CC4)ccc3n2)cn1
IC50 [5]: 9.7 nM

Compound: COC(=O)N[C@H](C(=O)N[C@@H](Cc1ccc(C#Cc2ccc(N3CC4CCC(C3)N4C3COC3)nc2)cc1)[C@@H](O)CN(Cc1c(F)cc(-c2ccn(C(F)F)n2)cc1F)NC(=O)[C@@H](NC(=O)OC)C(C)(C)C(F)(F)F)C(C)(C)C(F)(F)F
EC50 (Protease): 4.8 nM

The next lines start with the values.

IC50 [3]: < 4.5 nM
IC50 [4]: < 4.5 nM
Compound: C[C@](N)(c1ccc(F)cc1)c1cnc(N2CCN(c3ncnn4cc(-c5cnn(CC6COC6)c5)cc34)CC2)nc1

CLH [6]: 5.17 mL/min/kg
Compound: c1cn2cc(-c3ccc4cn[nH]c4c3)nc(Nc3ccc(N4CCOCC4)cc3)c2n1 [ENTOSPLETINIB]

CLH [6]: < 1.83 mL/min/kg
solubility [7]: > 100 µM
Compound: Nc1cncc(-c2cn3ccnc3c(Nc3ccc(N4CCN(C5COC5)CC4)cc3)n2)n1 [LANRAPLENIB]
